According to EP0674635B1, “QUINUCLIDINE DERIVATIVES AS SQUALENE SYNTHASE INHIBITORS” (Syngenta Limited, priority 1992, dated 1994):

How the values were obtained:
squalene synthase = target: T1, squalene synthase (Rattus norvegicus, UniProt Q02769); test: Inhibition of squalene synthase (formation of squalene from tritiated farnesyl pyrophosphate, rat liver microsomal protein); type: biochemical; settings: at a concentration of 2.5µM, substrate 20µM
T1 construct: from tissue; host or cells: rat liver microsomes
T1 sequence (Q02769 1-416): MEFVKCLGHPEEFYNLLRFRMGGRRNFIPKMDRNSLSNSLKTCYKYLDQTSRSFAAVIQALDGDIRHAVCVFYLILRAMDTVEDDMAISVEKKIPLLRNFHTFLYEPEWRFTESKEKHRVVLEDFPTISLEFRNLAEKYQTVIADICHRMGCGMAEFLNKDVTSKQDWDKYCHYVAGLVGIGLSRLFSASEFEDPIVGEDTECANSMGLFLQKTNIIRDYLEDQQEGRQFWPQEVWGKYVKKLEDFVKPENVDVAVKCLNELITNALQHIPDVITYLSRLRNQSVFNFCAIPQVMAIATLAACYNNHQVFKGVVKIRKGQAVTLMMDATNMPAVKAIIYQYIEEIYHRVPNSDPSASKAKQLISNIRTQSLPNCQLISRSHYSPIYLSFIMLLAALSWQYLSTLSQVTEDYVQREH
Method: (a) Inhibition of Squalene synthase
In this test, the ability of a compound to prevent the formation of squalene from a radioactive substrate (tritiated farnesyl pyrophosphate) is assessed.
The test compound is incubated at a concentration of 25 micromolar in 200µl of a buffered solution containing potassium phosphate (50mM), MgCl2 (4.95mM), KF (9.9mM), NADPH (0.9mM) and rat liver microsomal protein (20µg). Rat liver microsomes are prepared by the method described in published European Patent Application No. 324,421 and stored in liquid nitrogen prior to assay. Assay vials are kept at 37°C throughout the incubation.
The reaction is started with the addition of the substrate (1-(^3H]-farnesyl pyrophosphate), final concentration 20µM, and stopped after 15 minutes reaction time with the addition of 50µl of 4% KOH. The reaction products are separated from unreacted substrate after application to a C-18 octadecyl 1ccBond column (Analytichem Int product No. 617101). An aqueous fraction is eluted with 250µl of 0.1M KOH. Squalene is then eluted with 1.0 ml 10% ethylacetate in hexane and radioactivity determined. The difference in radioactivity in the presence and absence of the test compound is used to determine the level of inhibition. […] The IC50 can then be determined from a plot of percentage inhibition against concentration of test compound.

[1] = test system: de novo hepatic cholesterol synthesis; test: Acute rat cholesterol synthesis assay (de novo hepatic cholesterol synthesis from 14C-acetate); type: in vivo; settings: for ED50: 14C-acetate
Method: (b) Acute rat cholesterol synthesis assay.
This is an acute in vivo test in the rat to measure de novo hepatic cholesterol synthesis from exogenously administered ^14C-acetate.
Female rats (35 - 55 g) are housed in reverse lighting conditions (red light from 0200h - 1400h) for a period of about 2 weeks prior to test. Animals are allowed free access to chow and drinking water throughout this period. At test, animals should weigh 125 - 150 g. Test compounds may be administered by oral gavage, dissolved or suspended in 0.5% polysorbate, or by ip or iv dosing. Control animals receive vehicle alone. After 1 hour the rats are injected ip with 25µCi [2-^14C]-acetate (NEN DUPONT. specific activity, 45-60mCi/mmol NEC-085H, or AMERSHAM specific activity, 50-60mCi/mmol CFA 14) in a volume of 0.25 ml saline (100µCi/ml). After a further hour, rats are terminally anaesthetised with halothane and a blood sample obtained from the abdominal vena cava.
1ml of plasma is lyophilised and then saponified in 2ml ethanolic KOH (1 part 33% KOH, 9 parts ethanol) at 75°C for 2 hours. After addition of an equal quantity of water, non-saponifiable lipids are extracted with two 5ml volumes of hexane. The hexane extracts are evaporated to dryness and the residues dissolved in ethanol to determine cholesterol specific radioactivity. ED50 values can be determined in the standard way.

SMILES	inhibition at 2.5 µM (squalene synthase) [%]	ED50 [1] [mg/kg]	reduction in the rate of cholesterol biosynthesis ([1]; dose not given) [%]
OC1(c2ccc(-c3ccc4ccccc4n3)cc2)CN2CCC1CC2 (centres unmarked) [Example 3, 3-[4-(2-quinolyl)phenyl)quinuclidin-3-ol]	~71	~14	74
OC1(c2ccc(-c3nc4ccccc4o3)cc2)CN2CCC1CC2 (centres unmarked) [Example 6, 3-[4-(benzoxazol-2-yl)phenyl]quinuclidin-3-ol]		~4.5	
OC1(c2ccc(-c3cnc4ccccc4c3)cc2)CN2CCC1CC2 (centres unmarked) [Example 12, 3-[4-quinol-3-ylphenyl]quinculidin-3-ol]		~3.8	
